Assay results published in PubChem BioAssay (NCI).
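Test compounds were applied to cells in 96-well plates for 48 hours at 5 doses. The concentration for full growth arrest is given as TGI.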

Experiments:
Assay in all cases: inhibition of tumour cell growth, NCI panel, 48 h
K-562 leukemia = system: K-562 leukemia
HOP-92 NSCLC = system: HOP-92 NSCLC
SF-295 CNS = system: SF-295 CNS
UACC-257 melanoma = system: UACC-257 melanoma
LXFL 529 NSCLC = system: LXFL 529 NSCLC
786-0 renal = system: 786-0 renal
KM12 colon = system: KM12 colon
NCI-H23 lung = system: NCI-H23 lung
TK-10 renal = system: TK-10 renal
PC-3 prostate = system: PC-3 prostate

Row | Compound | TGI (K-562 leukemia) [µM] | TGI (HOP-92 NSCLC) [µM] | TGI (SF-295 CNS) [µM] | TGI (UACC-257 melanoma) [µM] | TGI (LXFL 529 NSCLC) [µM] | TGI (786-0 renal) [µM] | TGI (KM12 colon) [µM] | TGI (NCI-H23 lung) [µM] | TGI (TK-10 renal) [µM] | TGI (PC-3 prostate) [µM]
1 | CC1(C)N=C(c2ccccn2)C(c2ccccn2)=NC1(C)C | > 100 | > 100 | > 100 | > 100 | > 100 | > 100 | > 100 | – | – | –
2 | CCCCNC(=O)/N=C/c1c(O)c2ccccc2oc1=O | – | > 100 | – | > 100 | > 100 | – | – | > 100 | > 100 | –
3 | O=c1oc2ccccc2c(O)c1C(C/C(CCN1CCCC1)=N\Nc1ccccc1)c1ccccc1 (stereo unspecified) | > 100 | 83.6 | > 100 | > 100 | > 100 | > 100 | > 100 | > 100 | > 100 | –
4 | COc1ccc(Sc2ccccc2N)cc1 | > 100 | 74.4 | > 100 | > 100 | > 100 | – | > 100 | > 100 | > 100 | –
5 | O=C1NCCS(=O)(=O)N2CCC[C@@H]12 | > 100 | > 100 | > 100 | > 100 | > 100 | > 100 | > 100 | > 100 | > 100 | –
6 | Cc1ccc(CCC(=O)C(=O)O)s1 | > 100 | > 100 | > 100 | > 100 | > 100 | – | > 100 | > 100 | > 100 | –
7 | COc1ccc2c(c1)OC[C@@H]1c3cc(O)c(OCc4ccccc4)cc3O[C@H]21 | > 100 | 61.7 | > 100 | 51.4 | 74.9 | > 100 | > 100 | 67.9 | 96.4 | –
8 | O=C1CC2CCC(C1)S2=O (stereo unspecified) | > 100 | > 100 | > 100 | > 100 | – | > 100 | > 100 | > 100 | > 100 | > 100
9 | CC1=NN(c2nc(N)nc(CF)n2)C(C)(C)C1 | > 100 | > 100 | > 100 | > 100 | – | > 100 | > 100 | > 100 | > 100 | > 100
10 | c1ccc(CN2CCN3CCN(CC2)CCN(Cc2ccccc2)CC3)cc1 | 25.6 | 21.9 | > 55.2 | 8.8 | – | 18.2 | 14.6 | 21.8 | 23.5 | 18.5
11 | Fc1cc(-c2cc(-c3ccc4c(c3)OCO4)n[nH]2)c(Cl)cc1Cl | > 40.1 | 6.21 | 9.4 | 27.9 | – | 3.59 | > 22.7 | 7.73 | 7.06 | 11.1
12 | Cc1ccc(NC(=O)CSC(N)=O)cc1C | > 100 | > 100 | > 100 | > 100 | – | > 100 | > 100 | > 100 | > 100 | > 100
13 | CN(C)CCCNCc1cccc2ccccc12 | > 100 | > 100 | > 100 | > 100 | – | > 100 | > 100 | > 100 | > 100 | > 100
14 | C=C(C)CNC(=S)N(N)c1ccc2ccccc2c1 | > 100 | > 100 | > 100 | > 100 | – | > 100 | 62.4 | > 100 | 71.4 | > 100
15 | CC1(C)CCc2c(c(N=Nc3ccc(F)cc3)c3ccccc3c2O)O1 | > 100 | > 100 | 49.8 | 41.1 | – | > 100 | > 100 | > 100 | > 100 | > 100
16 | Oc1cc(Br)cc2cc(Cl)cnc12 | 12.3 | > 100 | > 48 | > 100 | – | 38.8 | > 42.7 | 48.2 | > 94.3 | > 100
